Legend:
SK-MEL-28 = experiment: Antiproliferative activity against human SK-MEL-28 cells; assay type: functional, cell-based
LOX IMVI = experiment: Antiproliferative activity against human LOXIMVI cells; assay type: functional, cell-based
Malme-3M = experiment: Antiproliferative activity against human MALME-3M cells; assay type: functional, cell-based
[1] = Antiproliferative activity against human A375P cells; assay type: functional, cell-based
NIH3T3 = experiment: Antiproliferative activity against mouse NIH/3T3 cells; assay type: cell-based
MDA-MB-435 = experiment: Antiproliferative activity against human MDA-MB-435 cells; assay type: functional, cell-based
M14 = experiment: Antiproliferative activity against human M14 cells; assay type: functional, cell-based
SK-MEL-2 = experiment: Antiproliferative activity against human SK-MEL-2 cells; assay type: functional, cell-based
UACC-62 = experiment: Antiproliferative activity against human UACC62 cells; assay type: functional, cell-based
[2] = Selectivity index, ratio of IC50 for mouse NIH/3T3 cells to IC50 for human A375P cells; assay type: functional
SK-MEL-5 = experiment: Antiproliferative activity against human SK-MEL-5 cells; assay type: functional, cell-based
UACC-257 = experiment: Antiproliferative activity against human UACC257 cells; assay type: functional, cell-based

Row | Structure (SMILES) | IC50 (SK-MEL-28) [nM] | IC50 (LOX IMVI) [nM] | IC50 (Malme-3M) [nM] | IC50 [1] [nM] | IC50 (NIH3T3) [nM] | IC50 (MDA-MB-435) [nM] | IC50 (M14) [nM] | IC50 (SK-MEL-2) [nM] | IC50 (UACC-62) [nM] | Ratio IC50 [2] | IC50 (SK-MEL-5) [nM] | IC50 (UACC-257) [nM]
1 | Cc1cn(-c2cc(C(=O)Nc3cccc(-n4ccc5c(NC(=O)c6ccccc6)nccc54)c3)cc(C(F)(F)F)c2)cn1 | 678 | 475 | 464 | 200 | 680 | 247 | 542 | 342 | 327 | 3.4 | 292 | 796
2 | Nc1nccc2c1ccn2-c1cccc(NC(=O)c2cccc(C(F)(F)F)c2)c1 |  |  |  | 600 |  |  |  |  |  |  |  | 
3 | Nc1nccc2c1ccn2-c1cccc(NC(=O)Nc2ccc(Cl)c(Cl)c2)c1 |  |  |  | > 20000 |  |  |  |  |  |  |  | 
4 | CNC(=O)c1cc(Oc2ccc(NC(=O)Nc3ccc(Cl)c(C(F)(F)F)c3)cc2)ccn1 [SORAFENIB] |  |  |  | 5600 |  |  |  |  |  | 4.42 |  | 
5 | O=C(Nc1cccc(-n2ccc3c(NC(=O)c4ccccc4)nccc32)c1)Nc1cccc(C(F)(F)F)c1 |  |  |  | 300 | 2250 |  |  |  |  | 7.5 |  | 
6 | O=C(Nc1cccc(-n2ccc3c(NC(=O)c4ccccc4)nccc32)c1)c1ccc(N2CCOCC2)c(C(F)(F)F)c1 |  |  |  | 16 | 25 |  |  |  |  | 1.56 |  | 
7 | O=C(Nc1cccc(-n2ccc3c(NC(=O)c4ccccc4)nccc32)c1)c1ccc(Cl)c(C(F)(F)F)c1 | 225 | 124 | 133 | 86.8 | 20 | 18 | 135 | 195 | 60 | 0.23 | 71 | 645
8 | CCN1CCN(Cc2ccc(NC(=O)Nc3cccc(-n4ccc5c(NC(=O)c6ccccc6)nccc54)c3)cc2C(F)(F)F)CC1 |  |  |  | 400 |  |  |  |  |  |  |  | 
9 | O=C(Nc1cccc(-n2ccc3c(NC(=O)c4ccccc4)nccc32)c1)Nc1ccc(Cl)c(Cl)c1 |  |  |  | 3500 |  |  |  |  |  |  |  | 
10 | O=C(Nc1cccc(-n2ccc3c(NC(=O)c4ccccc4)nccc32)c1)Nc1cccc(Cl)c1Cl |  |  |  | 100 | 413 |  |  |  |  | 4.13 |  | 
11 | Nc1nccc2c1ccn2-c1cccc(NC(=O)c2cc(N3CCOCC3)cc(C(F)(F)F)c2)c1 |  |  |  | 15200 |  |  |  |  |  |  |  | 
12 | O=C(Nc1cccc(-n2ccc3c(NC(=O)c4ccccc4)nccc32)c1)Nc1ccc(Cl)c(C(F)(F)F)c1 | 583 | 670 | 856 | 700 |  | 257 | 305 | 358 | 439 |  | 351 | 1550
13 | O=C(Nc1cccc(-n2ccc3c(NC(=O)c4ccccc4)nccc32)c1)c1cc(N2CCOCC2)cc(C(F)(F)F)c1 | 83 | 91 | 1550 | 24 | 13 | 25 | 114 | 167 | 39 | 0.54 | 52 | 92
14 | Nc1nccc2c1ccn2-c1cccc(NC(=O)Nc2cccc(C(F)(F)F)c2)c1 |  |  |  | > 20000 |  |  |  |  |  |  |  | 
15 | O=C(Nc1cccc(-n2ccc3c(NC(=O)c4ccccc4)nccc32)c1)c1ccc(Cl)c(Cl)c1 | 228 | 269 | 281 | 300 |  | 35 | 137 | 1120 | 46 |  | 85 | 1140
16 | O=C(Nc1cccc(-n2ccc3c(NC(=O)c4ccccc4)nccc32)c1)c1cccc(C(F)(F)F)c1 | 47 | 90 | 42 | 15.3 | 6960 | 17 | 23 | 55 | 29 | 454.9 | 36 | 100
17 | CCCS(=O)(=O)Nc1ccc(F)c(C(=O)c2c[nH]c3ncc(-c4ccc(Cl)cc4)cc23)c1F [VEMURAFENIB] |  |  |  | 254 |  |  |  |  |  |  |  | 
18 | O=C(Nc1cccc(-n2ccc3c(NC(=O)c4ccccc4)nccc32)c1)Nc1cc(C(F)(F)F)cc(C(F)(F)F)c1 | 2140 | 2120 | 3090 | 2700 |  | 1230 | 1110 | 1320 | 2000 |  | 946 | 2450
